± gives the expanded uncertainty stated by the source.
Experiments:
[1] = for surface tension liquid-gas: Wilhelmy plate method; for viscosity: 101.3 kPa, Liquid, Concentric cylinders viscometry
[2] = refractive index (Na D-line) (dimensionless); details: 293.15 K; 101.33 kPa; Liquid; Standard Abbe refractometry
[3] = xn = mol fraction of the nth substance listed; details: x1 = 1; for surface tension liquid-gas: Wilhelmy plate method; for viscosity: 101.3 kPa, Liquid, Concentric cylinders viscometry

| SMILES | surface tension liquid-gas ([1]; 298.15 K) [mN/m] | viscosity ([1]; 298.15 K) [mPa·s] | surface tension liquid-gas ([1]; 303.15 K) [mN/m] | viscosity ([1]; 303.15 K) [mPa·s] | surface tension liquid-gas ([1]; 308.15 K) [mN/m] | viscosity ([1]; 308.15 K) [mPa·s] | surface tension liquid-gas ([1]; 313.15 K) [mN/m] | viscosity ([1]; 313.15 K) [mPa·s] | refractive index [2] | surface tension liquid-gas ([3]; 298.15 K) [mN/m] | viscosity ([3]; 298.15 K) [mPa·s] | surface tension liquid-gas ([3]; 303.15 K) [mN/m] | viscosity ([3]; 303.15 K) [mPa·s] | surface tension liquid-gas ([3]; 308.15 K) [mN/m] | viscosity ([3]; 308.15 K) [mPa·s] | surface tension liquid-gas ([3]; 313.15 K) [mN/m] | viscosity ([3]; 313.15 K) [mPa·s] |
| --- | --- | --- | --- | --- | --- | --- | --- | --- | --- | --- | --- | --- | --- | --- | --- | --- | --- |
| CCCCCCCCCCO [decan-1-ol] | 28.35 ± 0.52 | 11.83 ± 0.25 | 27.29 ± 0.52 | 9.754 ± 0.2 | 26.23 ± 0.52 | 8.135 ± 0.17 | 25.17 ± 0.52 | 6.842 ± 0.14 | 1.437 ± 0.001 |  |  |  |  |  |  |  |  |
| CN(C)C=O [dimethylformamide] | 35.2 ± 0.5 | 0.8162 ± 0.017 | 34.1 ± 0.5 | 0.7678 ± 0.016 | 33 ± 0.5 | 0.7262 ± 0.016 | 32 ± 0.5 | 0.678 ± 0.015 | 1.429 ± 0.001 |  |  |  |  |  |  |  |  |
| CN(C)C=O [dimethylformamide] + CCCCCCCCCCO |  |  |  |  |  |  |  |  |  | 35.2 ± 0.5 | 0.8162 ± 0.017 | 34.1 ± 0.5 | 0.7678 ± 0.016 | 33 ± 0.5 | 0.7262 ± 0.016 | 32 ± 0.5 | 0.678 ± 0.015 |
| CN(C)C=O [dimethylformamide] + CCCCCCCCCO |  |  |  |  |  |  |  |  |  | 35.2 ± 0.5 | 0.8162 ± 0.017 | 34.1 ± 0.5 | 0.7678 ± 0.016 | 33 ± 0.5 | 0.7262 ± 0.016 | 32 ± 0.5 | 0.678 ± 0.015 |
| CN(C)C=O [dimethylformamide] + CCCCCCCCO |  |  |  |  |  |  |  |  |  | 35.2 ± 0.5 | 0.8162 ± 0.017 | 34.1 ± 0.5 | 0.7678 ± 0.016 | 33 ± 0.5 | 0.7262 ± 0.016 | 32 ± 0.5 | 0.678 ± 0.015 |
| CCCCCCCCCO [nonan-1-ol] | 27.58 ± 0.57 | 9.715 ± 0.22 | 26.53 ± 0.57 | 7.927 ± 0.18 | 25.49 ± 0.56 | 6.664 ± 0.15 | 24.44 ± 0.56 | 5.645 ± 0.13 | 1.433 ± 0.001 |  |  |  |  |  |  |  |  |
| CCCCCCCCO [octan-1-ol] | 27.47 ± 0.52 | 7.661 ± 0.16 | 26.42 ± 0.52 | 6.402 ± 0.13 | 25.41 ± 0.52 | 5.425 ± 0.11 | 24.38 ± 0.52 | 4.628 ± 0.097 | 1.429 ± 0.001 |  |  |  |  |  |  |  |  |

Source: the NIST ThermoML archive (doi:10.1016/j.jct.2014.03.022)
